The target in one assay is T1, human recombinant HDAC1 (Homo sapiens, UniProt Q13547).
T1 construct: purchased Enzo Life Science, Inc. BML-SE456
Nature of the assay: HDAC1 enzyme activity inhibition (HDAC Fluorimetric Drug Discovery Kit). It is filed as biochemical. As to conditions: human recombinant HDAC1; IC50 calculated with GraphPad Prism; read-out: HDAC1. In a few lines: (§1)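 Each isoform is run in the same format: compound dilutions (5-fold steps), 10 μM substrate, […] enzyme, one hour at 30° C, then 30 minutes with developer before fluorescence readout.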

The target of a further assay is T2, human recombinant HDAC6 (Homo sapiens, UniProt Q9UBN7).
T2 construct: purchased Calbiochem Inc. 382180
T2 sequence (Q9UBN7 1-1215): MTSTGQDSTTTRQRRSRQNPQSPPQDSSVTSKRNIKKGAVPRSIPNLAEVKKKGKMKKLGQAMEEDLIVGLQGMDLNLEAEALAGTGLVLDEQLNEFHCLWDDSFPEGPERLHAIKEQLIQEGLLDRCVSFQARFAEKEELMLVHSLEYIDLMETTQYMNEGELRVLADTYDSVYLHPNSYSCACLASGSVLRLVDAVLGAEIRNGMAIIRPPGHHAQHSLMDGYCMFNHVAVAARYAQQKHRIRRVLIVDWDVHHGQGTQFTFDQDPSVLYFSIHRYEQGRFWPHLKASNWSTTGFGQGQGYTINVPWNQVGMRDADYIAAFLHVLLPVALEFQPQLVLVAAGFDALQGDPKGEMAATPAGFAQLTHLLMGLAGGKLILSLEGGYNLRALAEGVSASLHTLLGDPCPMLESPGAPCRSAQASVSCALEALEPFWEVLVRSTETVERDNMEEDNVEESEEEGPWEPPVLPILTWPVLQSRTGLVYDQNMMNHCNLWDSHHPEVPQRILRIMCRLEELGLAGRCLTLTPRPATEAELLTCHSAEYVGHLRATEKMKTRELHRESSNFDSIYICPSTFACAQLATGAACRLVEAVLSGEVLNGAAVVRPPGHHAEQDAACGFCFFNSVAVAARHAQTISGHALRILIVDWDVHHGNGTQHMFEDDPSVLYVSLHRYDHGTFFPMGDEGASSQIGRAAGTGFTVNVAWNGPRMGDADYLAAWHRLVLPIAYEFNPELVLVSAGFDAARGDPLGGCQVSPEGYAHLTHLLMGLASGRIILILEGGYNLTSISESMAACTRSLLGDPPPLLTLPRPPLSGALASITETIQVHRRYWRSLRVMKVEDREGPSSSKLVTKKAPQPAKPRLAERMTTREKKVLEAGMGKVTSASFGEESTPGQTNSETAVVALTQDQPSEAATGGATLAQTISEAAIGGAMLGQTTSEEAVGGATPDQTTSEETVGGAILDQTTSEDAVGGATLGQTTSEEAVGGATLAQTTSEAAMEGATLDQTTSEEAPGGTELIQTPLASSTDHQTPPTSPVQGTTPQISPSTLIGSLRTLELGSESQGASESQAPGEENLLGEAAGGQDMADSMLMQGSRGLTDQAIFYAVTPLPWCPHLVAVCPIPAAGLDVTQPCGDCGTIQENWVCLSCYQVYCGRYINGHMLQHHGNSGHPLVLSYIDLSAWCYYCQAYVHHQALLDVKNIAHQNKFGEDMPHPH
The assay is described as follows: HDAC6 enzyme activity inhibition (HDAC Fluorimetric Drug Discovery Kit). It is filed as biochemical. As to conditions: for HDAC6 selectivity (fold): HDAC1 IC50 / HDAC6 IC50; for IC50: human recombinant HDAC6, IC50 calculated with GraphPad Prism. In a few lines:
as §1

Where only a bound is given, the exact number is not on record here.

T1 sequence (Q13547 whole entry): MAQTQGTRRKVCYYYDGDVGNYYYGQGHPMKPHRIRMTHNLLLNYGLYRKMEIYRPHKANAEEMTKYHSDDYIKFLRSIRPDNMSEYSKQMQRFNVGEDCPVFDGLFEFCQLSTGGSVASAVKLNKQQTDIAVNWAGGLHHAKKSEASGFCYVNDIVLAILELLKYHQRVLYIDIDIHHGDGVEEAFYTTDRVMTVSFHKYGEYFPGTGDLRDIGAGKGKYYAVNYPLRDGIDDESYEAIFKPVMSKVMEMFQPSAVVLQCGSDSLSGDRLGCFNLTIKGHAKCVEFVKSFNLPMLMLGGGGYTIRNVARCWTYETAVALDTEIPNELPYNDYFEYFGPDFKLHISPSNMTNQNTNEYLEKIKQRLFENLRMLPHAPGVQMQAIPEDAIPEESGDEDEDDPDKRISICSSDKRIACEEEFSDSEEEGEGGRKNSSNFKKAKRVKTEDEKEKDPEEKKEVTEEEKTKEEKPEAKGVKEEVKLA

For `CCCN1CCN(c2cccc(-c3cn(Cc4ccc(-c5nnc(C(F)F)o5)cc4F)nn3)c2)CC1` [Compound 4374, 2-(difluoromethyl)-5-(3-fluoro-4-((4-(3-(4-propylpiperazin-1-yl)phenyl)-1H-1,2,3-triazol-1-yl)methyl)phenyl)-1,3,4-oxadiazole], the results for the IC50 at human recombinant HDAC1 and on human recombinant HDAC6 were greater than 50000 nM and 21.9 nM, respectively. Besides, on human recombinant HDAC6, the “HDAC6 selectivity (fold)” value is 228 fold.

For the compound `Fc1cc(-c2nnc(C(F)F)o2)ccc1Cn1cc(-c2cccc(N3CCN(C4CCC4)CC3)c2)nn1` [Compound 4376, 2-(4-((4-(3-(4-cyclobutylpiperazin-1-yl)phenyl)-1H-1,2,3-triazol-1-yl)methyl)-3-fluorophenyl)-5-(difluoromethyl)-1,3,4-oxadiazole], the IC50 on human recombinant HDAC1 is greater than 50000 nM. Further, at human recombinant HDAC6, the “HDAC6 selectivity (fold)” value was determined as 1094 fold and the IC50 was 45.7 nM.

Turning to `CCC(=O)N1CCN(c2cccc(-c3cn(Cc4ccc(-c5nnc(C(F)F)o5)cc4F)nn3)c2)CC1` [Compound 4377, 1-(4-(3-(1-(4-(5-(difluoromethyl)-1,3,4-oxadiazol-2-yl)-2-fluorobenzyl)-1H-1,2,3-triazol-4-yl)phenyl)piperazin-1l-yl)propan-1l-one], on human recombinant HDAC1, the IC50 is greater than 50000 nM. In addition, on human recombinant HDAC6, the “HDAC6 selectivity (fold)” value amounted to 1039 fold and the IC50 was 48.1 nM.

Consider `CCN1CC(N2CCc3cc(-c4cn(Cc5ccc(-c6nnc(C(F)F)o6)cc5F)nn4)ccc3C2)C1` [Compound 4392, 2-(difluoromethyl)-5-(4-((4-(2-(1-ethylazetidin-3-yl)-1,2,3,4-tetrahydroisoquinolin-6-yl)-1H-1,2,3-triazol-1-yl)methyl)-3-fluorophenyl)-1,3,4-oxadiazole], for which the IC50 on human recombinant HDAC1 is greater than 50000 nM. On human recombinant HDAC6, the “HDAC6 selectivity (fold)” value amounted to 1262 fold and the IC50 is 39.6 nM.

For `CC(C)N1CC(N2CCc3cc(-c4cn(Cc5ccc(-c6nnc(C(F)F)o6)cc5F)nn4)ccc3C2)C1` [Compound 4393, 2-(difluoromethyl)-5-(3-fluoro-4-((4-(2-(1-isopropylazetidin-3-yl)-1,2,3,4-tetrahydroisoquinolin-6-yl)-1H-1,2,3-triazol-1-yl)methyl)phenyl)-1,3,4-oxadiazole], at human recombinant HDAC1, the IC50 was greater than 50000 nM. Also, at human recombinant HDAC6, the “HDAC6 selectivity (fold)” value is 1381 fold and the IC50 was 36.2 nM.

Turning to `Fc1cc(-c2nnc(C(F)F)o2)ccc1Cn1cc(-c2ccc3c(c2)CCN(C2CN(C4CCC4)C2)C3)nn1` [Compound 4394, 2-(4-((4-(2-(1-cyclobutylazetidin-3-yl)-1,2,3,4-tetrahydroisoquinolin-6-yl)-1H-1,2,3-triazol-1-yl)methyl)-3-fluorophenyl)-5-(difluoromethyl)-1,3,4-oxadiazole], the IC50 on human recombinant HDAC1 was greater than 50000 nM. At human recombinant HDAC6, the “HDAC6 selectivity (fold)” value was found to be 706 fold and the IC50 was 70.8 nM.

As for `Fc1cc(-c2nnc(C(F)F)o2)ccc1Cn1cc(-c2ccc3c(c2)CCN(C2CN(C4COC4)C2)C3)nn1` [Compound 4395, 2-(difluoromethyl)-5-(3-fluoro-4-((4-(2-(1-(oxetan-3-yl)azetidin-3-yl)-1,2,3,4-tetrahydroisoquinolin-6-yl)-1H-1,2,3-triazol-1-yl)methyl)phenyl)-1,3,4-oxadiazole], the IC50 on human recombinant HDAC1 was greater than 50000 nM. Also, at human recombinant HDAC6, the “HDAC6 selectivity (fold)” value came to 1024 fold and the IC50 was 48.8 nM.

Take `Fc1ccc(-c2cn(Cc3ccc(-c4nnc(C(F)F)o4)cc3)nn2)cc1N1CCNCC1` [Compound 4396, 2-(difluoromethyl)-5-(4-((4-(4-fluoro-3-(piperazin-1-yl)phenyl)-1H-1,2,3-triazol-1-yl)methyl)phenyl)-1,3,4-oxadiazole]: at human recombinant HDAC1, the IC50 is greater than 50000 nM. Further, on human recombinant HDAC6, the “HDAC6 selectivity (fold)” value turned out to be 619 fold and the IC50 is 80.7 nM.

Turning to `Fc1cc(-c2nnc(C(F)F)o2)ccc1Cn1cc(-c2ccc(F)c(N3CCNCC3)c2)nn1` [Compound 4397, 2-(difluoromethyl)-5-(3-fluoro-4-((4-(4-fluoro-3-(piperazin-1-yl)phenyl)-1H-1,2,3-triazol-1-yl)methyl)phenyl)-1,3,4-oxadiazole], the values for the IC50 at human recombinant HDAC1 and on human recombinant HDAC6 were greater than 50000 nM and 65.2 nM, respectively. The “HDAC6 selectivity (fold)” value at human recombinant HDAC6 is reported as 766 fold.

In the case of `Fc1ccc(-c2cn(Cc3ccc(-c4nnc(C(F)F)o4)cc3)nn2)cc1N1C[C@@H]2C[C@H]1CN2` [Compound 4398, 2-(4-((4-(3-((1S,4S)-2,5-diazabicyclo[2.2.1]heptan-2-yl)-4-fluorophenyl)-1H-1,2,3-triazol-1-yl)methyl)phenyl)-5-(difluoromethyl)-1,3,4-oxadiazole], the IC50 at human recombinant HDAC1 is greater than 50000 nM; on human recombinant HDAC6, 50.6 nM. The “HDAC6 selectivity (fold)” value at human recombinant HDAC6 is 988 fold.

As to `Fc1cc(-c2nnc(C(F)F)o2)ccc1Cn1cc(-c2ccc(F)c(N3C[C@@H]4C[C@H]3CN4)c2)nn1` [Compound 4399, 2-(4-((4-(3-((1S,4S)-2,5-diazabicyclo[2.2.1]heptan-2-yl)-4-fluorophenyl)-1H-1,2,3-triazol-1-yl)methyl)-3-fluorophenyl)-5-(difluoromethyl)-1,3,4-oxadiazole], the IC50 on human recombinant HDAC1 was greater than 50000 nM. Further, at human recombinant HDAC6, the “HDAC6 selectivity (fold)” value is given as 460 fold and the IC50 was 108 nM.

For the compound `FC(F)c1nnc(-c2ccc(Cn3cc(-c4cccc(CN5CC(F)(F)C5)c4)nn3)nc2)o1` [Compound 4400, 2-(6-((4-(3-((3,3-difluoroazetidin-1-yl)methyl)phenyl)-1H-1,2,3-triazol-1-yl)methyl)pyridin-3-yl)-5-(difluoromethyl)-1,3,4-oxadiazole], the IC50 at human recombinant HDAC1 was greater than 50000 nM. For the same compound, on human recombinant HDAC6, the “HDAC6 selectivity (fold)” value turned out to be 1628 fold and the IC50 is 30.7 nM.

As for `FC(F)c1nnc(-c2ccc(Cn3cc(-c4cccc(CN5CCC(F)(F)CC5)c4)nn3)nc2)o1` [Compound 4401, 2-(difluoromethyl)-5-(6-((4-(3-((4,4-difluoropiperidin-1-yl)methyl)phenyl)-1H-1,2,3-triazol-1-yl)methyl)pyridin-3-yl)-1,3,4-oxadiazole], the IC50 at human recombinant HDAC1 was greater than 50000 nM. In addition, on human recombinant HDAC6, the “HDAC6 selectivity (fold)” value is listed as 1126 fold and the IC50 is 44.4 nM.

For `Fc1cc(-c2nnc(C(F)F)o2)ccc1Cn1cc(-c2cccc(CN3CCC3)c2)nn1` [Compound 4402, 2-(4-((4-(3-(azetidin-1-ylmethyl)phenyl)-1H-1,2,3-triazol-1-yl)methyl)-3-fluorophenyl)-5-(difluoromethyl)-1,3,4-oxadiazole], the IC50 on human recombinant HDAC1 is greater than 50000 nM; on human recombinant HDAC6, 73.8 nM. Further, the “HDAC6 selectivity (fold)” value on human recombinant HDAC6 is on record as 677 fold.

For `Fc1cc(-c2nnc(C(F)F)o2)ccc1Cn1cc(-c2cccc(CN3CC(F)C3)c2)nn1` [Compound 4403, 2-(difluoromethyl)-5-(3-fluoro-4-((4-(3-((3-fluoroazetidin-1-yl)methyl)phenyl)-1H-1,2,3-triazol-1-yl)methyl)phenyl)-1,3,4-oxadiazole], the values for the IC50 on human recombinant HDAC1 and on human recombinant HDAC6 were greater than 50000 nM and 41.2 nM, respectively. For the same compound, at human recombinant HDAC6, the “HDAC6 selectivity (fold)” value came to 1213 fold.

`Fc1cc(-c2nnc(C(F)F)o2)ccc1Cn1cc(-c2cccc(CN3CCOCC3)c2)nn1` [Compound 4404, 4-(3-(1-(4-(5-(difluoromethyl)-1,3,4-oxadiazol-2-yl)-2-fluorobenzyl)-1H-1,2,3-triazol-4-yl)benzyl)morpholine]: the IC50 on human recombinant HDAC1 is greater than 50000 nM. For the same compound, on human recombinant HDAC6, the “HDAC6 selectivity (fold)” value was 837 fold and the IC50 is 59.7 nM.

`Fc1cc(-c2nnc(C(F)F)o2)ccc1Cn1cc(-c2cccc(CN3CCC(F)(F)CC3)c2)nn1` [Compound 4405, 2-(difluoromethyl)-5-(4-((4-(3-((4,4-difluoropiperidin-1-yl)methyl)phenyl)-1H-1,2,3-triazol-1-yl)methyl)-3-fluorophenyl)-1,3,4-oxadiazole]: the IC50 at human recombinant HDAC1 is greater than 50000 nM. Besides, at human recombinant HDAC6, the “HDAC6 selectivity (fold)” value was 794 fold and the IC50 is 62.9 nM.

Values taken from patent publication US20230257372A1 (CHONG KUN DANG PHARMACEUTICAL CORP., priority 2020, published 2023).
